ChEMBL document CHEMBL1201862, “PubChem BioAssay data set” (2004)
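Exposure lasted 48 hours, with cells grown in 96-well plates and compounds tested at five concentrations. GI50 = concentration required for 50% inhibition of growth.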 Calls of active or inactive are those of the source. Cut-off read from the data, not from the text of the source: active = GI50 up to about 1.1 µM and inactive = higher.

Experiments:
Test in all cases: NCI anticancer screen, dose series, 48 h
DMS-114 = tested on: DMS-114
UACC-62 = tested on: UACC-62
HCC 2998 = tested on: HCC 2998
HCT-116 = tested on: HCT-116
HT-29 = tested on: HT-29
SK-MEL-5 = tested on: SK-MEL-5
SNB-19 = tested on: SNB-19
U-251 = tested on: U-251
NCI-H522 = tested on: NCI-H522
HOP-18 = tested on: HOP-18
MOLT-4 = tested on: MOLT-4
IGROV-1 = tested on: IGROV-1
OVCAR-3 = tested on: OVCAR-3
HCT-15 = tested on: HCT-15
786-0 = tested on: 786-0
SR = tested on: SR

| SMILES | GI50 (DMS-114) | GI50 (UACC-62) | GI50 (HCC 2998) | GI50 (HCT-116) | GI50 (HT-29) | GI50 (SK-MEL-5) | GI50 (SNB-19) | GI50 (U-251) | GI50 (NCI-H522) | GI50 (HOP-18) | GI50 (MOLT-4) | GI50 (IGROV-1) | GI50 (OVCAR-3) | GI50 (HCT-15) [µM] | GI50 (786-0) | GI50 (SR) |
| --- | --- | --- | --- | --- | --- | --- | --- | --- | --- | --- | --- | --- | --- | --- | --- | --- |
| COc1cc(OC)c2ssc3c(OC)cc(OC)c4ssc1c2-c43 | > 100 µM (inactive) | > 100 µM (inactive) | > 100 µM (inactive) | > 100 µM (inactive) | > 100 µM (inactive) | > 100 µM (inactive) | > 100 µM (inactive) | > 100 µM (inactive) | > 100 µM (inactive) | > 100 µM (inactive) | > 100 µM (inactive) | > 100 µM (inactive) | > 100 µM (inactive) | > 100 | > 100 µM (inactive) |  |
| CS/C(=N\c1ccc([N+](=O)[O-])cc1C#N)NC(=O)c1ccccc1 | > 100 µM (inactive) | > 100 µM (inactive) | > 100 µM (inactive) | > 100 µM (inactive) | > 100 µM (inactive) | > 100 µM (inactive) | > 100 µM (inactive) | > 100 µM (inactive) |  | 75.7 µM (inactive) | 54.2 µM (inactive) | > 100 µM (inactive) | > 100 µM (inactive) | > 100 | > 100 µM (inactive) | > 100 µM (inactive) |
| Cc1nn(C(=O)CC(=O)Nc2ccccc2Cl)c(C)c1/N=N/c1ccccc1Cl | > 100 µM (inactive) | > 100 µM (inactive) | > 100 µM (inactive) | > 100 µM (inactive) | > 100 µM (inactive) | > 100 µM (inactive) | > 100 µM (inactive) | > 100 µM (inactive) |  | > 100 µM (inactive) | > 100 µM (inactive) | > 100 µM (inactive) | > 100 µM (inactive) | > 100 | > 100 µM (inactive) | > 100 µM (inactive) |
| C/C(CCn1[nH]c(=O)ccc1=O)=N\OCCCc1ccccc1 | > 100 µM (inactive) | > 100 µM (inactive) | > 100 µM (inactive) | > 100 µM (inactive) | > 100 µM (inactive) | > 100 µM (inactive) | > 100 µM (inactive) |  |  | > 100 µM (inactive) | > 100 µM (inactive) | > 100 µM (inactive) | > 100 µM (inactive) | > 100 | > 100 µM (inactive) | > 100 µM (inactive) |
| O=C(Nc1ccc(Cl)cc1Cl)C1C(=O)N(c2ccc(Cl)cc2Cl)C(=O)/C1=N\Nc1ccc([N+](=O)[O-])cc1[N+](=O)[O-] (stereo not given) | 13.2 µM (inactive) | 15.8 µM (inactive) | 37.6 µM (inactive) | 26.9 µM (inactive) | 35.8 µM (inactive) | 79.8 µM (inactive) | 39.1 µM (inactive) | 48.8 µM (inactive) | 21.5 µM (inactive) | 17.9 µM (inactive) | 22 µM (inactive) | 83 µM (inactive) | 47.2 µM (inactive) | 9.82 | 67.8 µM (inactive) |  |
| O=C(Nc1ccc(Cl)cc1Cl)C1C(=O)C(=O)N(c2ccc(Cl)cc2Cl)C1=O (stereo not given) | > 100 µM (inactive) | > 100 µM (inactive) | > 100 µM (inactive) | 99.1 µM (inactive) | > 100 µM (inactive) | > 100 µM (inactive) | > 100 µM (inactive) | > 100 µM (inactive) | > 100 µM (inactive) | > 100 µM (inactive) |  | > 100 µM (inactive) | 38.5 µM (inactive) | > 100 | > 100 µM (inactive) |  |
| Fc1ccc(F)c(C2SCc3nc4ccccc4n32)c1 (stereo not given) | 23.5 µM (inactive) | 91.6 µM (inactive) | > 100 µM (inactive) | 61 µM (inactive) | 86.3 µM (inactive) | 20.3 µM (inactive) | > 100 µM (inactive) | > 100 µM (inactive) | 36.1 µM (inactive) | 89.1 µM (inactive) | 27.2 µM (inactive) | > 100 µM (inactive) | 54.6 µM (inactive) | 71.1 | > 100 µM (inactive) | 43.9 µM (inactive) |
| CCOC(=O)/C=C1\Nc2ccccc2-n2nnnc21 | > 100 µM (inactive) | > 100 µM (inactive) | > 100 µM (inactive) | > 100 µM (inactive) | 95.5 µM (inactive) | > 100 µM (inactive) | > 100 µM (inactive) | 22.1 µM (inactive) |  | > 100 µM (inactive) | > 100 µM (inactive) | > 100 µM (inactive) | > 100 µM (inactive) | > 100 | > 100 µM (inactive) | > 100 µM (inactive) |
| COC(=O)C1=CC(O)CCC1c1ccc(OC)cc1 (stereo not given) | > 100 µM (inactive) | > 100 µM (inactive) | > 100 µM (inactive) | > 100 µM (inactive) | > 100 µM (inactive) | > 100 µM (inactive) | > 100 µM (inactive) | > 100 µM (inactive) | > 100 µM (inactive) | > 100 µM (inactive) | > 100 µM (inactive) | > 100 µM (inactive) | > 100 µM (inactive) | > 100 | > 100 µM (inactive) | > 100 µM (inactive) |
| C1=C(c2ccccc2)C(OC2Oc3ccccc3C=C2c2ccccc2)Oc2ccccc21 (stereo not given) | > 100 µM (inactive) | > 100 µM (inactive) | > 100 µM (inactive) | > 100 µM (inactive) | > 100 µM (inactive) | > 100 µM (inactive) | > 100 µM (inactive) | 15.5 µM (inactive) | > 100 µM (inactive) | > 100 µM (inactive) | > 100 µM (inactive) | > 100 µM (inactive) | > 100 µM (inactive) | > 100 | > 100 µM (inactive) | 33.6 µM (inactive) |
| Cc1ccc(NC(=O)CCc2nnc(S)[nH]2)cc1 | 39.5 µM (inactive) | 17 µM (inactive) |  | > 100 µM (inactive) | > 100 µM (inactive) | > 100 µM (inactive) | > 100 µM (inactive) | > 100 µM (inactive) | > 100 µM (inactive) | > 100 µM (inactive) | > 100 µM (inactive) | > 100 µM (inactive) | > 100 µM (inactive) | 76 | > 100 µM (inactive) | > 100 µM (inactive) |
| Nc1cn(C2OC(CC(c3ccccc3)(c3ccccc3)c3ccccc3)C(O)C2O)c(=O)[nH]c1=O (stereo not given) | 15.5 µM (inactive) | 14.2 µM (inactive) | 27 µM (inactive) | 17.6 µM (inactive) | 23.2 µM (inactive) | 20.5 µM (inactive) | 26.8 µM (inactive) | 17.7 µM (inactive) | 19.2 µM (inactive) | 31.9 µM (inactive) | 20.4 µM (inactive) | 23.9 µM (inactive) | 14.5 µM (inactive) | 17.8 | 21.4 µM (inactive) | 18.7 µM (inactive) |
| CC(=O)C1=C(O)C(N)C2Cc3c(c(O)c4c(O)c(C)ccc4c3C)C(=O)C2(O)C1=O (stereo not given) | 2.38 µM (inactive) | 1.25 µM (inactive) | 3.28 µM (inactive) | 1.28 µM (inactive) | 2.23 µM (inactive) | 1.19 µM (inactive) | 2.34 µM (inactive) | 0.885 µM (active) | 3.98 µM (inactive) | 2.93 µM (inactive) | 1.71 µM (inactive) | 2.96 µM (inactive) | 1.3 µM (inactive) | 0.774 | 2.58 µM (inactive) | 1.64 µM (inactive) |
| CN(C)CC(C)(C)C(/C=C/c1ccccc1)=N\Nc1ccccc1 | 4.25 µM (inactive) | 0.0527 µM (active) |  | 0.705 µM (active) | 11 µM (inactive) | 6.64 µM (inactive) | 3.23 µM (inactive) | 0.306 µM (active) | 6.14 µM (inactive) | 15.3 µM (inactive) | 0.451 µM (active) | 0.723 µM (active) | 1.44 µM (inactive) | 0.309 | 0.457 µM (active) | 0.798 µM (active) |
| Cc1cc(O)c(C=O)c(C)c1CCC1(C)C=Cc2cc(O)ccc2O1 (stereo not given) | 18.4 µM (inactive) | 16.7 µM (inactive) | 29.4 µM (inactive) | 16.8 µM (inactive) | 31 µM (inactive) | 25.2 µM (inactive) | 38.9 µM (inactive) | 21.4 µM (inactive) | 14.8 µM (inactive) | 18.3 µM (inactive) | 18.4 µM (inactive) | 26.2 µM (inactive) | 18.5 µM (inactive) | 22.9 | 29.3 µM (inactive) | > 100 µM (inactive) |
| O=S(=O)(O)c1ccc([Se][Se]c2ccc(S(=O)(=O)O)cc2)cc1 | > 100 µM (inactive) | > 100 µM (inactive) | > 100 µM (inactive) | > 100 µM (inactive) | > 100 µM (inactive) | > 100 µM (inactive) | > 100 µM (inactive) | > 100 µM (inactive) | 60.5 µM (inactive) | > 100 µM (inactive) | > 100 µM (inactive) | > 100 µM (inactive) | > 100 µM (inactive) | > 100 | > 100 µM (inactive) | 27.9 µM (inactive) |
| O=[N+]([O-])c1nccn1CC(O)CN1CC1 (stereo not given) | 50.7 µM (inactive) | 44.8 µM (inactive) |  | 47.6 µM (inactive) | 56.6 µM (inactive) | 71.8 µM (inactive) | > 100 µM (inactive) | 35.6 µM (inactive) | 21.5 µM (inactive) | > 100 µM (inactive) | 32 µM (inactive) | 71.3 µM (inactive) | 25.5 µM (inactive) | 58.6 | 65.6 µM (inactive) | 27.2 µM (inactive) |
